The structures appear in SMILES notation. Values joined by “and” are separate entries in the source; they are usually repeats but may differ in a detail not shown here. Equal values may be shown once.

The assay deals with Dirofilaria immitis JYD strain (ivermectin-resistant). Description: Infection of NSG mice with ivermectin-resistant JYD strain D. immitis L3, treatment, recovery and count of worms. The class given is in vivo. To be noted: for % Rec, Mean: group mean; for % Rec: individual mice.
Where [1] appears, read: 7823 1.0 mg/kg Days 1, 15, 30, 50 JYD Di L3 per NSG mouse, recovery Days 40-42, Table 20.
[2] abbreviates: 7823 5.0 mg/kg Days 1, 15, 30, 50 JYD Di L3 per NSG mouse, recovery Days 40-42, Table 20.

`C[C@H]1OC(=O)[C@H](CC2CC2)N(C)C(=O)[C@@H](Cc2ccc(C(C)(C)C)cc2)OC(=O)[C@H](CC(C)(C)F)N(C)C(=O)[C@@H](C)OC(=O)[C@H](CC2CC2)N(C)C(=O)[C@@H](Cc2ccc(C(C)(C)C)cc2)OC(=O)[C@H](CC(C)(C)F)N(C)C1=O` [compound 7823]: the “% Red” value reads like this: (7823 0.1 mg/kg Days 1, 15, 30, 50 JYD Di L3 per NSG mouse, Table 20, vs Control) “% Red: 83%”; (7823 0.25 mg/kg Days 1, 15, 30, 50 JYD Di L3 per NSG mouse, Table 20, vs Control) “% Red: 91%”; (7823 0.5 mg/kg Days 1, 15, 30, 50 JYD Di L3 per NSG mouse, Table 20, vs Control) “% Red: 87%”; (7823 1 mg/kg Days 1, 15, 30, 50 JYD Di L3 per NSG mouse, Table 18, vs Control) “% Red: 98%”; (7823 1.0 mg/kg Days 1, 15, 30, 50 JYD Di L3 per NSG mouse, Table 20, vs Control) “% Red: 100%”; (7823 5.0 mg/kg Days 1, 15, 30, 50 JYD Di L3 per NSG mouse, Table 20, vs Control) “% Red: 100%”. The “% Rec, Mean” value runs as follows: (7823 0.1 mg/kg Days 1, 15, 30, 50 JYD Di L3 per NSG mouse, recovery Days 40-42, Table 20) 4%; (7823 0.25 mg/kg Days 1, 15, 30, 50 JYD Di L3 per NSG mouse, recovery Days 40-42, Table 20) 2%; (7823 0.5 mg/kg Days 1, 15, 30, 50 JYD Di L3 per NSG mouse, recovery Days 40-42, Table 20) 3%; under setting [1], 0%; (7823 1 mg/kg Days 1, 15, 30, 50 JYD Di L3 per NSG mouse, recovery Days 41 and 42, Table 18) 1%; under setting [2], 0%. For the same molecule, the “% Rec” value (7823 0.1 mg/kg Days 1, 15, 30, 50 JYD Di L3 per NSG mouse, recovery Days 40-42, Table 20, 0.1 mg/kg) is 6% (2×) and 0% and 8% and 2%; the “% Rec” value (7823 0.25 mg/kg Days 1, 15, 30, 50 JYD Di L3 per NSG mouse, recovery Days 40-42, Table 20, 0.25 mg/kg) is 4% (2×) and 0% (3×); the “% Rec” value (7823 0.5 mg/kg Days 1, 15, 30, 50 JYD Di L3 per NSG mouse, recovery Days 40-42, Table 20, 0.5 mg/kg) was 0% (2×) and 8% and 4% and 2%; the “% Rec” value under setting [1] worked out at 0%; the “% Rec” value (7823 1 mg/kg Days 1, 15, 30, 50 JYD Di L3 per NSG mouse, recovery Days 41 and 42, Table 18, 1 mg/kg) is 2% (2×) and 0% (4×) and 4%; the “% Rec” value under setting [2] is given as 0%. Also, the “Survival, Mean” value (in vivo, 0.1 mg/kg) was 2; the “Survival, Mean” value (in vivo, 0.25 mg/kg) came to 1; the “Survival, Mean” value (in vivo, 0.5 mg/kg) was found to be 1; the “Survival, Mean” value (in vivo, 5 mg/kg) is listed as 0. This molecule also had a Survival (in vivo, 5 mg/kg) of 0.

Take `CC(C)C[C@H]1C(=O)O[C@H](C)C(=O)N(C)[C@@H](CC(C)(C)F)C(=O)O[C@H](Cc2ccc(OC(F)(F)F)cc2)C(=O)N(C)[C@@H](CC(C)C)C(=O)O[C@H](C)C(=O)N(C)[C@@H](CC(C)(C)F)C(=O)O[C@H](Cc2ccc(OC(F)(F)F)cc2)C(=O)N1C` [compound 2677]: the “% Rec, Mean” value (2677 1 mg/kg Days 1, 15, 30, 50 JYD Di L3 per NSG mouse, recovery Days 41 and 42, Table 18) turned out to be 8%. Under “2677 1 mg/kg Days 1, 15, 30, 50 JYD Di L3 per NSG mouse, recovery Days 41 and 42, Table 18, 1 mg/kg”, the “% Rec” value is 6% and 4% (3×) and 2% and 18% and 16%. Besides, for the setting “in vivo, 1 mg/kg”, the “% Red” value is “% Red: 81%” and the “Survival, Mean” value was found to be 4.

Consider `CC(C)C[C@H]1C(=O)O[C@H](C)C(=O)N(C)[C@@H](CC(C)(C)F)C(=O)O[C@H](Cc2ccc(C3CCOCC3)cc2)C(=O)N(C)[C@@H](CC(C)C)C(=O)O[C@H](C)C(=O)N(C)[C@@H](CC(C)(C)F)C(=O)O[C@H](Cc2ccc(C3CCOCC3)cc2)C(=O)N1C` [compound 8800], for which, where the note is “8800 1 mg/kg Days 1, 15, 30, 50 JYD Di L3 per NSG mouse, Table 18, vs Control”, the “% Red” value is recorded as “% Red: 67%”. Further, the “% Rec, Mean” value (8800 1 mg/kg Days 1, 15, 30, 50 JYD Di L3 per NSG mouse, recovery Days 41 and 42, Table 18) was found to be 14%. Further, the “% Rec” value (8800 1 mg/kg Days 1, 15, 30, 50 JYD Di L3 per NSG mouse, recovery Days 41 and 42, Table 18, 1 mg/kg) is 12% (2×) and 16% and 8% and 4% and 26% and 18%. Under “in vivo, 1 mg/kg”, the “Survival, Mean” value is 7.

Turning to `CC(C)C[C@H]1C(=O)O[C@H](C)C(=O)N(C)[C@@H](CC(C)(C)F)C(=O)O[C@H](Cc2ccc(C(F)(F)F)cc2)C(=O)N(C)[C@@H](CC(C)C)C(=O)O[C@H](C)C(=O)N(C)[C@@H](CC(C)(C)F)C(=O)O[C@H](Cc2ccc(C(F)(F)F)cc2)C(=O)N1C` [compound 3615], the “% Red” value (3615 1 mg/kg Days 1, 15, 30, 50 JYD Di L3 per NSG mouse, Table 18, vs Control) is recorded as “% Red: 40%”. For the same molecule, for the setting “3615 1 mg/kg Days 1, 15, 30, 50 JYD Di L3 per NSG mouse, recovery Days 41 and 42, Table 18”, the “% Rec, Mean” value was 26%. Also, the “% Rec” value (3615 1 mg/kg Days 1, 15, 30, 50 JYD Di L3 per NSG mouse, recovery Days 41 and 42, Table 18, 1 mg/kg) was 24% (2×) and 26% and 30% and 28% and 36% and 16%. Further, the “Survival, Mean” value (in vivo, 1 mg/kg) was found to be 13.

Take `C[C@H]1OC(=O)[C@H](CC(C)(C)C)N(C)C(=O)[C@@H](Cc2ccc(OC(F)(F)F)cc2)OC(=O)[C@H](CC(C)(C)F)N(C)C(=O)[C@@H](C)OC(=O)[C@H](CC(C)(C)C)N(C)C(=O)[C@@H](Cc2ccc(OC(F)(F)F)cc2)OC(=O)[C@H](CC(C)(C)F)N(C)C1=O` [compound 5010]: the “% Red” value (5010 1 mg/kg Days 1, 15, 30, 50 JYD Di L3 per NSG mouse, Table 18, vs Control) is listed as “% Red: 33%”. For the same molecule, the “% Rec, Mean” value (5010 1 mg/kg Days 1, 15, 30, 50 JYD Di L3 per NSG mouse, recovery Days 41 and 42, Table 18) is 29%. Also, the “% Rec” value (5010 1 mg/kg Days 1, 15, 30, 50 JYD Di L3 per NSG mouse, recovery Days 41 and 42, Table 18, 1 mg/kg) was 24% (2×) and 36% and 14% and 34% and 30% and 38%. Further, the “Survival, Mean” value (in vivo, 1 mg/kg) worked out at 14.

For the origin of these results see US20200011856A1, “Method for Determining the Effectiveness of Treatment for the Prevention of Heartworm Disease” (priority 2017, published 2020).
